Target: T1, TET2 catalytic domain (TET2CD) (Homo sapiens, UniProt Q6N021, DEL1481-1843)
T1 construct: GST-TET2CD (1099–1936 Del-insert), expressed in E. coli; also GST tag free TET2CD
Assay: SPR (Biacore […]), GST-TET2CD captured by anti-GST on CM5 chip; supported by Kd […] on 5mC-DNA-captured TET2CD and 5hmC ELISA EC50 […]
Type: binding

O=C1O[C@H]([C@@H](O)CO)C(O)=C1O [AA, Ascorbic acid]
Kd: 9.1 ± 2.3 µM
